7 compounds from patent US9108920B2, “Diazeniumdiolate heterocyclic derivatives” (Merck Sharp & Dohme Corp., priority 2010, dated 2015) can be followed below.

The test system of the test is Male beagle dogs. Description: canine telemetry protocol, blood pressure reduction efficacy. It counts as in vivo. To be noted: change from baseline, 3 mg/kg oral gavage; for ΔPP (mm Hg) 1-6 h / ΔPP (mm Hg) 6-12 h / ΔPP (mm Hg) 12-18 h: pulse pressure; for ΔSBP (mm Hg) 1-6 h / ΔSBP (mm Hg) 6-12 h / ΔSBP (mm Hg) 12-18 h: systolic blood pressure. The method, then:
Compounds of the invention were evaluated for blood pressure reduction efficacy using the following canine telemetry protocol described below.
Male beagle dogs (approximately 1-3 years old) with a body weight of between 10 and 16 kg were surgically implanted with DSI radiotelemetry devices (model: TL11M2-D70-PCT). Briefly, under an inhalant anesthesia, isoflurane/oxygen mixture (1-3.5%/to effect), the body of the telemetry device was positioned and secured intra-abdominally. Subsequently, the arterial catheter of the telemetry device was passed subcutaneously to the inguinal area and introduced into the femoral artery and advanced to the level of the descending aorta. The catheter was secured with 2-0 silk ligatures. The muscle and underlying fascia was closed over the catheter using absorbable suture and the skin was closed using non-absorbable suture. The animals were allowed a minimum recovery period of 2 weeks between surgery and the evaluation of test compounds.
Compound evaluation consisted of a 3 day paradigm at a 3 mg/kg dose. On the first day, no compounds were administered during a 24 hour period of baseline data collection. Blood pressure and heart rate data were collected continuously for one minute periods at 10 minute intervals. On the days of compound administration half the animals received test article with the other half receiving the vehicle used for compound formulation. All test materials were administered by oral gavage in a volume of 1 mL/kg. Data are expressed either as raw values (mm Hg or beats per minute) or as the change from baseline (average value for about 12 hours in low activity period prior to dosing).

In the case of “O^2-[(3R)-1-(3-methoxyphenyl)-2-oxopyrrolidin-3-yl]1-(N-tert-butyl-N-methylamino)diazen-1-ium-1,2-diolate [Example 64]”, the “ΔPP (mm Hg) 1-6 h” value was −12 mm Hg, the “ΔPP (mm Hg) 6-12 h” value is −15 mm Hg, the “ΔPP (mm Hg) 12-18 h” value is on record as −13 mm Hg and the “ΔSBP (mm Hg) 1-6 h” value is listed as −13 mm Hg. Further, the “ΔSBP (mm Hg) 6-12 h” value was −12 mm Hg and the “ΔSBP (mm Hg) 12-18 h” value is on record as −11 mm Hg.
With `CN(/[N+]([O-])=N/O[C@@H]1CCN(Cc2ccccc2)C1)C(C)(C)C` [Example 28, O^2-[(3R)-1-benzylpyrrolidin-3-yl]1-(N-tert-butyl-N-methylamino)diazen-1-ium-1,2-diolate], the “ΔPP (mm Hg) 1-6 h” value is recorded as −12 mm Hg, the “ΔPP (mm Hg) 6-12 h” value is reported as −10 mm Hg, the “ΔPP (mm Hg) 12-18 h” value is −5 mm Hg and the “ΔSBP (mm Hg) 1-6 h” value is listed as −21 mm Hg. Besides, the “ΔSBP (mm Hg) 6-12 h” value was −14 mm Hg and the “ΔSBP (mm Hg) 12-18 h” value is listed as −7 mm Hg.
Take `CCN(/[N+]([O-])=N/O[C@@H]1CCN(CC(F)(F)F)C1)C(C)(C)C` [Example 32, O^2-[(3R)-1-(2,2,2-trifluoroethyl)pyrrolidin-3-yl]-1-(N-tert-butyl-N-ethylamino)diazen-1-ium-1,2-diolate]: the “ΔPP (mm Hg) 1-6 h” value is −23 mm Hg, the “ΔPP (mm Hg) 6-12 h” value was −15 mm Hg, the “ΔPP (mm Hg) 12-18 h” value was −10 mm Hg and the “ΔSBP (mm Hg) 1-6 h” value was −32 mm Hg. In addition, the “ΔSBP (mm Hg) 6-12 h” value is listed as −16 mm Hg and the “ΔSBP (mm Hg) 12-18 h” value was −5 mm Hg.
As to `CCN(/[N+]([O-])=N/O[C@@H]1CCN(C(=O)NC(C)(C)C)C1)C(C)(C)C` [Example 59, O^2-[(3R)-1-(tert-butylcarbamoyl)pyrrolidin-3-yl]1-(N-tert-butyl-N-ethylamino)diazen-1-ium-1,2-diolate], the “ΔPP (mm Hg) 1-6 h” value is −17 mm Hg, the “ΔPP (mm Hg) 6-12 h” value is −16 mm Hg, the “ΔPP (mm Hg) 12-18 h” value was −15 mm Hg and the “ΔSBP (mm Hg) 1-6 h” value is recorded as −19 mm Hg. For the same compound, the “ΔSBP (mm Hg) 6-12 h” value is recorded as −18 mm Hg and the “ΔSBP (mm Hg) 12-18 h” value is −17 mm Hg.
On to `CCN(/[N+]([O-])=N/OC1CCN(c2ccc(C#N)cn2)CC1)C(C)(C)C` [Example 48, O^2-[1-(5-cyanopyridin-2-yl)piperidin-4-yl]1-(N-tert-butyl-N-ethylamino)diazen-1-ium-1,2-diolate], for which the “ΔPP (mm Hg) 1-6 h” value is on record as −17 mm Hg, the “ΔPP (mm Hg) 6-12 h” value is −16 mm Hg, the “ΔPP (mm Hg) 12-18 h” value is −15 mm Hg and the “ΔSBP (mm Hg) 1-6 h” value was −16 mm Hg. Also, the “ΔSBP (mm Hg) 6-12 h” value is on record as −12 mm Hg and the “ΔSBP (mm Hg) 12-18 h” value is −11 mm Hg.
On to `CN(/[N+]([O-])=N/O[C@@H]1CCN(C(=O)OC(C)(C)C)C1)C(C)(C)C` [Example 1, O^2-[(3R)-1-(tert-butoxycarbonyl)pyrrolidin-3-yl]1-(N-tert-butyl-N-methylamino)diazen-1-ium-1,2-diolate], for which the “ΔPP (mm Hg) 1-6 h” value was −16 mm Hg, the “ΔPP (mm Hg) 6-12 h” value is reported as −17 mm Hg, the “ΔPP (mm Hg) 12-18 h” value is −15 mm Hg and the “ΔSBP (mm Hg) 1-6 h” value is −16 mm Hg. For the same compound, the “ΔSBP (mm Hg) 6-12 h” value was −15 mm Hg and the “ΔSBP (mm Hg) 12-18 h” value was −11 mm Hg.
Regarding `CCN(/[N+]([O-])=N/OC1CCN(C(=O)OC(C)(C)C)CC1)C(C)(C)C` [Example 6, O^2-[1-(tert-butoxycarbonyl)piperidin-4-yl]1-(N-tert-butyl-N-ethylamino)diazen-1-ium-1,2-diolate], the “ΔPP (mm Hg) 1-6 h” value was −19 mm Hg, the “ΔPP (mm Hg) 6-12 h” value was −17 mm Hg, the “ΔPP (mm Hg) 12-18 h” value is −15 mm Hg and the “ΔSBP (mm Hg) 1-6 h” value is −25 mm Hg. Further, the “ΔSBP (mm Hg) 6-12 h” value was −16 mm Hg and the “ΔSBP (mm Hg) 12-18 h” value is listed as −9 mm Hg.
